This note sets out measurements from US12180207B2 (ARRAY BIOPHARMA INC., priority 2018, dated 2024).

In general, IC50 refers to the concentration that inhibits the measured activity by half.

Experiment [1] concerns the target recombinant human FGFR3 (amino acids R397-T806) (Homo sapiens (Human), UniProt P22607). Kind of experiment: FGFR3 enzyme activity assay (LanthaScreen TR-FRET). It is filed as biochemical. Conditions: 25 μM ATP, 10 min incubation at 22° C., average of multiple determinations if made, read-out: FGFR3 Enz FRET IC50. How it is done: FGFR3 kinase activity was measured by the Invitrogen LanthaScreen™ Assay technology which directly measures the amount of substrate phosphorylation by TR-FRET using a fluorescently-labeled peptide and Europium-labeled antibody. Briefly, […] N-terminal GST-HIS6 fusion protein with a 3C cleavage site recombinant human FGFR3 (amino acids R397-T806) (ProQinase Cat. No. 1068-0000-1) was incubated with 100 nM Alexa Fluor® 647-Poly-GT Peptide Substrate (Life Technologies Cat. No. PV5836) and 25 μM ATP along with test compound in a buffer consisting of 250 mM HEPES, 25 mM MgCl2, 0.05% TritonX-100, pH 7.5, and 2% DMSO. […] After a 10 minute incubation at 22° C., an equal volume of 2 nM LanthaScreen® Eu-PY20 Antibody (Life Technologies Cat. No. PV5691) and 10 mM EDTA were added to quench the kinase reaction and start the detection reaction. After an additional 60 minute incubation at 22° C., the reaction was measured using a PerkinElmer EnVision multimode plate reader via TR-FRET dual wavelength detection, and the percent of control (POC) calculated using a ratiometric emission factor. 100 POC was determined using no test compounds and 0 POC was determined using no enzyme. The POC values were fit to a 4-parameter logistic curve as a function of the concentration of the compound, and the IC50 value is the point where the curve crosses 50 POC.

For experiment [2], the target named is dephosphorylated FGFR1 (SEQ ID NO: 1, amino acids 458 to 765) (Homo sapiens (Human), UniProt P11362). Kind of experiment: FGFR enzyme binding assay (HTRF tracer displacement), FGFR1. As to conditions: 5 nM dephosphorylated FGFR1, average of multiple determinations if made. How it is done:
(§1) The potency of compounds inhibiting human isoforms of FGFR kinase was determined using Life Technologies' Homogeneous Time Resolved Fluorescence (HTRF)-based binding assay technology. […] After a 60 minute incubation at 22° C., the extent of tracer displacement was determined using a PerkinElmer EnVision multimode plate reader via HTRF dual wavelength detection, and the percent of control (POC) was calculated using a ratiometric emission factor. One hundred POC was determined using no test compound, and 0 POC was determined in the presence of 1 μM of an appropriate control inhibitor.
Background: In TR-FRET formats the signal depends on donor and acceptor labels being close together.

Experiment [3] has as its target FGFR1 (SEQ ID NO: 1, amino acids 458-765) (Homo sapiens (Human), UniProt P11362). Kind of experiment: LC/MS FGFR1 kobs assay (covalent protein modification). Conditions: 500 nM FGFR1, 3 μM compound. It is filed as binding. How it is done: (§2) The LC/MS FGFR1 and FGFR3 kobs assays were conducted as follows. […] At each time point, the reaction was quenched with 20 μL of 0.4% formic acid. The extent of protein modification by each compound was determined by LC/MS on an Agilent Technologies 6520 Q-TOF LC/MS. Protein signals were then automatically deconvoluted using Agilent Masshunter software. Deconvoluted mass signals were exported to Tibco Spotfire data analysis program for further processing and normalization.
(§3) Data analysis included five steps. First, the signals for the “DMSO Controls” were analyzed to determine the percent of signal associated with unmodified FGFR1 or FGFR3 at each time point. Next, the percent of the signal associated with the covalent modification was determined. Third, the average nonmodified “DMSO Control” signal was used to normalize the modified protein signals at each time point. The percent of unmodified protein was fit to an exponential decay model where A0 is the Percent Unmodified at the start of the reaction, and kobs is the observed rate constant over the time period.

The target of experiment [4] is phosphorylated FGFR3 (SEQ ID NO: 5, amino acids 449 to 759) (Homo sapiens (Human), UniProt P22607). Description: FGFR enzyme binding assay (HTRF tracer displacement), FGFR3. As to conditions: 5 nM phosphorylated FGFR3, average of multiple determinations if made. How it is done: as §1
Sequence of phosphorylated FGFR3 (SEQ ID NO: 5, amino acids 449 to 759) (P22607 449-759): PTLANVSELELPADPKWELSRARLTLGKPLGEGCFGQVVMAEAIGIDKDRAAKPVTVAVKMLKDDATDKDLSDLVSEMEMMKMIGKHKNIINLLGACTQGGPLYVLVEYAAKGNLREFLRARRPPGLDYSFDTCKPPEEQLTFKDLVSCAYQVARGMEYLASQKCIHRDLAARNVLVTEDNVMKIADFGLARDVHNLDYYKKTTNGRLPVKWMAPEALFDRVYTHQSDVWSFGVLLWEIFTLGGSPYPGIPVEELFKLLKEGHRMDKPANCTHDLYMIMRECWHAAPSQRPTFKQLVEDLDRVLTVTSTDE
Experiment [5] deals with recombinant human FGFR1 catalytic domain (amino acids 308-731) (Homo sapiens (Human), UniProt P11362). Description: FGFR1 enzyme activity assay (LanthaScreen TR-FRET). The format is biochemical. Conditions: 20 min incubation at 22° C., average of multiple determinations if made, read-out: FGFR1 Enz FRET IC50. How it is done: FGFR1 kinase activity was measured by the Invitrogen LanthaScreen™ Assay technology which directly measures the amount of substrate phosphorylation by Time-resolved fluorescence energy transfer (TR-FRET) using a fluorescently-labeled peptide and Europium-labeled antibody. Briefly, […] His-tagged recombinant human FGFR1 catalytic domain (amino acids 308-731) (Life Technologies Cat. No. PR4660A) was incubated with 100 nM Alexa Fluor® 647-Poly-GT Peptide Substrate (Life Technologies Cat. No. PV5836) and […] ATP along with test compound in a buffer consisting of 250 mM HEPES, 25 mM MgCl2, 0.05% TritonX-100, pH 7.5, and 2% DMSO. […] After a 20 minutes incubation at 22° C., an equal volume of 2 nM LanthaScreen® Eu-PY20 Antibody (Life Technologies Cat. No. PV5691) and 10 mM EDTA was added to quench the kinase reaction and start the detection reaction. After an additional 60 minute incubation at 22° C., the reaction was measured using a PerkinElmer EnVision multimode plate reader via TR-FRET dual wavelength detection, and the percent of control (POC) calculated using a ratiometric emission factor. 100 POC was determined using no test compounds and 0 POC was determined using no enzyme. The POC values were fit to a 4-parameter logistic curve as a function of the concentration of the compound, and the IC50 value is the point where the curve crosses 50 POC.
Sequence of recombinant human FGFR1 catalytic domain (amino acids 308-731) (P11362 other isoform, or with tags, fused parts or gaps): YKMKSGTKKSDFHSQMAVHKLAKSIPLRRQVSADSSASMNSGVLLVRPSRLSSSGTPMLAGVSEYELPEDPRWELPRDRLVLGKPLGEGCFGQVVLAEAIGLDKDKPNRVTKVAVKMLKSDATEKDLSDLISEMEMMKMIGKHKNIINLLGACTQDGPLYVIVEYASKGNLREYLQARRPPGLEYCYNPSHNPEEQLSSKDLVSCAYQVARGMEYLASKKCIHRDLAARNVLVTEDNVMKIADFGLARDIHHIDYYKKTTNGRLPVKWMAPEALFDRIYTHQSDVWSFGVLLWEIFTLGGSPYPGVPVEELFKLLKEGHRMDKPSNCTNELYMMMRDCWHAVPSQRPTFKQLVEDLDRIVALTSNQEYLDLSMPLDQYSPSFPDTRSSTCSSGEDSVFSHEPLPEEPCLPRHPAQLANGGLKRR

Experiment [6] addresses recombinant human FGFR2 cytoplasmic domain (amino acids 403-822) (Homo sapiens (Human), UniProt P21802). Description: FGFR2 enzyme activity assay (LanthaScreen TR-FRET). The format is biochemical. Conditions: 15 μM ATP, 20 min incubation at 22° C., average of multiple determinations if made, read-out: FGFR2 Enz FRET IC50. How it is done: FGFR2 kinase activity was measured by the Invitrogen LanthaScreen™ Assay technology which directly measures the amount of substrate phosphorylation by TR-FRET using a fluorescently-labeled peptide and Europium-labeled antibody. Briefly, […] His-tagged recombinant human FGFR2 cytoplasmic domain (amino acids 403-822) (Life Technologies Cat. No. PR5332A) was incubated with 100 nM Alexa Fluor® 647-Poly-GT Peptide Substrate (Life Technologies Cat. No. PV5836) and 15 μM ATP along with test compound in a buffer consisting of 250 mM HEPES, 25 mM MgCl2, 0.05% TritonX-100, pH 7.5, and 2% DMSO. […] After a 20 minute incubation at 22° C., an equal volume of 2 nM LanthaScreen® Eu-PY20 Antibody (Life Technologies Cat. No. PV5691) and 10 mM EDTA were added to quench the kinase reaction and start the detection reaction. After an additional 60 minute incubation at 22° C., the reaction was measured using a PerkinElmer EnVision multimode plate reader via TR-FRET dual wavelength detection, and the percent of control (POC) calculated using a ratiometric emission factor. 100 POC was determined using no test compounds and 0 POC was determined using no enzyme. The POC values were fit to a 4-parameter logistic curve as a function of the concentration of the compound, and the IC50 value is the point where the curve crosses 50 POC.

Experiment [7] deals with FGFR3 (SEQ ID NO: 5, amino acids 449-759) (Homo sapiens (Human), UniProt P22607). Description: LC/MS FGFR3 kobs assay (covalent protein modification). The format is binding. As to conditions: 500 nM FGFR3, 3 μM compound. How it is done: as §2, §3
Sequence of FGFR3 (SEQ ID NO: 5, amino acids 449-759) (P22607 449-759): as the sequence (P22607 449-759) above
Table EC contains kobs values for compounds tested in these assays, presented as the average of multiple determinations if multiple determinations were made. ND=not determined.

Sequence of FGFR1 (SEQ ID NO: 1, amino acids 458-765) (P11362 458-765): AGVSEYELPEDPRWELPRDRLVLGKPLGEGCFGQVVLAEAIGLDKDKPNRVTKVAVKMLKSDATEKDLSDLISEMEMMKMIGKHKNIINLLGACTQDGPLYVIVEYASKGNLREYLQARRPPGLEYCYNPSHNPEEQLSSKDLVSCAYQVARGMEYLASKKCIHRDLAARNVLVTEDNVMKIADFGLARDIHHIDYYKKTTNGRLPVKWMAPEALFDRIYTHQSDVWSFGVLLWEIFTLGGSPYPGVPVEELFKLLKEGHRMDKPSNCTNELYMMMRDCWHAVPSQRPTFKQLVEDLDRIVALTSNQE
Sequence of dephosphorylated FGFR1 (SEQ ID NO: 1, amino acids 458 to 765) (P11362 458-765): as above
Sequence of recombinant human FGFR3 (amino acids R397-T806) (P22607 397-806): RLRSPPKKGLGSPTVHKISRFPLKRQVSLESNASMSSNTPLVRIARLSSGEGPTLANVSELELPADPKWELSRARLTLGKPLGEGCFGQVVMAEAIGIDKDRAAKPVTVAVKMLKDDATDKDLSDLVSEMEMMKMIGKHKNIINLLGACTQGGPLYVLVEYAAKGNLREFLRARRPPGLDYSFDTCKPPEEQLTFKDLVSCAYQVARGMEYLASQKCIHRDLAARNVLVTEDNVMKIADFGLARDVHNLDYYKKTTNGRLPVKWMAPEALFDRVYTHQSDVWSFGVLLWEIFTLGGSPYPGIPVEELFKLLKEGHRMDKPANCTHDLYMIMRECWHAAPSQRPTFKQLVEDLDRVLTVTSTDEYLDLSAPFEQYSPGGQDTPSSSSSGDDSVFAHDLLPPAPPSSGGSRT
Sequence of recombinant human FGFR2 cytoplasmic domain (amino acids 403-822) (P21802 402-821): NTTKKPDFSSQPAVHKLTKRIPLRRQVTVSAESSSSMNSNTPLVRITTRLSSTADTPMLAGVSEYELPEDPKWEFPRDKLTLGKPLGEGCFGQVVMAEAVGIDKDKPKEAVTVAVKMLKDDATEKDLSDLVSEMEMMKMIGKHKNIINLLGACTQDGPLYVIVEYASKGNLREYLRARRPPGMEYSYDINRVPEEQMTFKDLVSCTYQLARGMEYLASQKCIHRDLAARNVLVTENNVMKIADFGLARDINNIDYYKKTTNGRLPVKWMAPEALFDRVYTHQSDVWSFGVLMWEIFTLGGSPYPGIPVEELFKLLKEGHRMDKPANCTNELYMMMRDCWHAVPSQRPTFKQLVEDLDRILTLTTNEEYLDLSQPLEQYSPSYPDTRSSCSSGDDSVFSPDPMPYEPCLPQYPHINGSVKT

Take `C=CC(=O)NC1CCC(NC(=O)c2ccc(-c3cc(OC)c4c(C#N)cnn4c3)cc2)CC1` (centres unmarked) [Example 167, N-(4-acrylamido-cyclohexyl)-4-(3-cyano-4-methoxypyrazolo [1,5-a]pyridin-6-yl)benzamide]: the IC50 in experiment [1] came out at 17 nM; in experiment [2] it was 1120 nM; in experiment [4] it was 192 nM; in experiment [5], 68 nM; in experiment [6], 18 nM. For the same compound, the “FGFR1 Enz kobs” value in experiment [3] came out at 0.00004 min⁻¹. Besides, the “FGFR3 Enz kobs” value in experiment [7] is 0.00039 min⁻¹.

Turning to `C=CC(=O)N1CCC[C@H](C(=O)N2CC[C@H](n3cc(-c4cc(OC)c5c(C#N)cnn5c4)cn3)C2)C1` [Example 63, 6-(1-((S)-1-((S)-1-acryloylpiperidine-3-carbonyl)pyrrolidin-3-yl)-1H-pyrazol-4-yl)-4-methoxypyrazolo[1,5-a]pyridine-3-carbonitrile], the IC50 in experiment [1] was 3 nM; in experiment [2], 199 nM; in experiment [4] it was 62 nM; in experiment [5] it was 26 nM; in experiment [6], 7 nM. Moreover, the “FGFR1 Enz kobs” value in experiment [3] stood at 0.0005 min⁻¹. For the same compound, the “FGFR3 Enz kobs” value in experiment [7] stood at 0.0013 min⁻¹.

With `C=CC(=O)N1C[C@H]2C[C@@H]1CN2C(=O)N1CCC(n2cc(-c3cc(OC)c4c(C#N)cnn4c3)cn2)CC1` [Example 5, 6-(1-(1-((1R,4R)-5-acryloyl-2,5-diazabicyclo[2.2.1]heptane-2-carbonyl)piperidin-4-yl)-1H-pyrazol-4-yl)-4-methoxypyrazolo[1,5-a]pyridine-3-carbonitrile], the IC50 in experiment [1] is 7 nM; in experiment [2], 47 nM; in experiment [4], 5 nM; in experiment [5] it was 25 nM; in experiment [6], 11 nM. Further, the “FGFR1 Enz kobs” value in experiment [3] was 0.00047 min⁻¹. In addition, in experiment [7], the “FGFR3 Enz kobs” value came to 0.00287 min⁻¹.

In the case of `C=CC(=O)N1CCN(C(=O)N2CCC(n3cc(-c4cc(OC)c5c(C#N)cnn5c4)cn3)CC2)CC1` [Example 2, 6-(1-(1-(4-acryloylpiperazine-1-carbonyl)piperidin-4-yl)-1H-pyrazol-4-yl)-4-methoxypyrazolo[1,5-a]pyridine-3-carbonitrile], the IC50 in experiment [1] is 4 nM; in experiment [2] it was 45 nM; in experiment [4] it was 4 nM; in experiment [5], 4 nM; in experiment [6] it was 14 nM. In addition, the “FGFR1 Enz kobs” value in experiment [3] was determined as 0.00076 min⁻¹. In experiment [7], the “FGFR3 Enz kobs” value is 0.00444 min⁻¹.

`C=CC(=O)Nc1cccc(C(=O)N2CC[C@H](n3cc(-c4cc(OC)c5c(C#N)cnn5c4)cn3)C2)c1` [Example 67, (S)-N-(3-(3-(4-(3-cyano-4-methoxypyrazolo[1,5-a]pyridin-6-yl)-1H-pyrazol-1-yl)pyrrolidine-1-carbonyl)phenyl)acrylamide]: the 50% inhibitory concentration (IC50) in experiment [1] is 5 nM; in experiment [2] it was 47 nM; in experiment [4], 12 nM; in experiment [5], 8 nM; in experiment [6], 3 nM. The “FGFR1 Enz kobs” value in experiment [3] turned out to be 0.00146 min⁻¹. In addition, in experiment [7], the “FGFR3 Enz kobs” value came to 0.00341 min⁻¹.

Consider `C=CC(=O)N1CC[C@H](C(=O)N2CC[C@@H](n3cc(-c4cc(OC)c5c(C#N)cnn5c4)cn3)C2)C1` [Example 57, 6-(1-((R)-1-((S)-1-acryloylpyrrolidine-3-carbonyl)pyrrolidin-3-yl)-1H-pyrazol-4-yl)-4-methoxypyrazolo[1,5-a]pyridine-3-carbonitrile], for which the 50% inhibitory concentration (IC50) stood at 6 nM in experiment [1]; 214 nM in experiment [2]; 25 nM in experiment [4]; 34 nM in experiment [5]; 7 nM in experiment [6]. The “FGFR1 Enz kobs” value in experiment [3] amounted to 0.00051 min⁻¹. For the same compound, the “FGFR3 Enz kobs” value in experiment [7] worked out at 0.0015 min⁻¹.

In the case of `C=CC(=O)N1CCC[C@H](C(=O)N2CCC(n3cc(-c4cc(OC)c5c(C#N)cnn5c4)cn3)CC2)C1` [Example 16, (S)-6-(1-(1-(1-acryloylpiperidine-3-carbonyl)piperidin-4-yl)-1H-pyrazol-4-yl)-4-methoxypyrazolo[1,5-a]pyridine-3-carbonitrile], the IC50 was determined as 2 nM in experiment [1]; 31 nM in experiment [2]; 6 nM in experiment [4]; 20 nM in experiment [5]; 4 nM in experiment [6]. For the same compound, the “FGFR1 Enz kobs” value in experiment [3] was 0.00054 min⁻¹. In addition, in experiment [7], the “FGFR3 Enz kobs” value was 0.00124 min⁻¹.

For the compound `C=CC(=O)N1CC[C@@H](C(=O)N2CC[C@H](n3cc(-c4cc(OC)c5c(C#N)cnn5c4)cn3)C2)C1` [Example 72, 6-(1-((S)-1-((R)-1-acryloylpyrrolidine-3-carbonyl)pyrrolidin-3-yl)-1H-pyrazol-4-yl)-4-methoxypyrazolo[1,5-a]pyridine-3-carbonitrile], the IC50 was 3 nM in experiment [1]; 36 nM in experiment [2]; 7 nM in experiment [4]; 25 nM in experiment [5]; 5 nM in experiment [6]. In addition, in experiment [3], the “FGFR1 Enz kobs” value is 0.00049 min⁻¹. The “FGFR3 Enz kobs” value in experiment [7] was 0.00117 min⁻¹.
